{"source": "ChEMBL document CHEMBL4118062", "about": "“Novel NO-releasing plumbagin derivatives: Design, synthesis and evaluation of antiproliferative activity” (Eur J Med Chem, 2017)", "key": {"HepG2 [1]": {"tested_on": "HepG2", "assay": "Cytotoxicity against human HepG2 cells assessed as growth inhibition at 40 uM after 72 hrs by MTT assay relative to control", "assay_type": "functional", "settings": "HepG2, 72 h, read-out: GI"}, "MDA-MB-231 [2]": {"tested_on": "MDA-MB-231", "assay": "Cytotoxicity against human MDA-MB-231 cells assessed as growth inhibition at 40 uM after 72 hrs by MTT assay relative to control", "assay_type": "functional", "settings": "MDA-MB-231, 72 h, read-out: GI"}, "HepG2 [3]": {"tested_on": "HepG2", "assay": "Cytotoxicity against human HepG2 cells assessed as growth inhibition at 20 uM after 72 hrs by MTT assay relative to control", "assay_type": "functional", "settings": "HepG2, 72 h, read-out: GI"}, "MDA-MB-231 [4]": {"tested_on": "MDA-MB-231", "assay": "Cytotoxicity against human MDA-MB-231 cells assessed as growth inhibition at 20 uM after 72 hrs by MTT assay relative to control", "assay_type": "functional", "settings": "MDA-MB-231, 72 h, read-out: GI"}, "HepG2 [5]": {"tested_on": "HepG2", "assay": "Cytotoxicity against human HepG2 cells assessed as growth inhibition at 10 uM after 72 hrs by MTT assay relative to control", "assay_type": "functional", "settings": "HepG2, 72 h, read-out: GI"}, "HepG2 [6]": {"tested_on": "HepG2", "assay": "Cytotoxicity against human HepG2 cells assessed as growth inhibition after 72 hrs by MTT assay", "assay_type": "functional, cell-based", "settings": "HepG2, 72 h"}, "[7]": {"assay": "Selectivity ratio of IC50 for human HepG2 cells to IC50 for human MDA-MB-231 cells", "assay_type": "functional"}, "A549": {"tested_on": "A549", "assay": "Cytotoxicity against human A549 cells assessed as growth inhibition after 72 hrs by MTT assay", "assay_type": "functional, cell-based", "settings": "A549, 72 h"}, "MDA-MB-231 [8]": {"tested_on": "MDA-MB-231", "assay": "Cytotoxicity against human MDA-MB-231 cells assessed as growth inhibition at 10 uM after 72 hrs by MTT assay relative to control", "assay_type": "functional", "settings": "MDA-MB-231, 72 h, read-out: GI"}, "MDA-MB-231 [9]": {"tested_on": "MDA-MB-231", "assay": "Cytotoxicity against human MDA-MB-231 cells assessed as growth inhibition after 72 hrs by MTT assay", "assay_type": "functional, cell-based", "settings": "MDA-MB-231, 72 h"}, "[10]": {"assay": "Selectivity ratio of IC50 for human A549 cells to IC50 for human MDA-MB-231 cells", "assay_type": "functional"}, "[11]": {"assay": "Chemical stability in PBS at pH 6 at 1000 uM after 3 to 24 hrs by HPLC method", "assay_type": "physicochemical", "settings": "buffer, pH 6, 1000 µM"}, "[12]": {"assay": "Chemical stability in PBS at pH 8 at 1000 uM after 24 hrs by HPLC method", "assay_type": "physicochemical", "settings": "buffer, pH 8, 24 h"}, "[13]": {"assay": "Chemical stability in PBS at pH 7.4 assessed as parent compound remaining at 1000 uM after 24 hrs by HPLC method", "assay_type": "physicochemical", "settings": "read-out: Stability"}, "[14]": {"assay": "Drug metabolism in human MDA-MB-231 cells assessed as nitric oxide release at 30 uM after 0.5 to 30 hrs by Griess assay", "assay_type": "ADME, cell-based", "settings": "mda-mb-231, 30 µM"}}, "data": [{"compound": "CC1=C(CCC(=O)O)C(=O)c2c(O)cccc2C1=O", "values": [{"measurement": "inhibition of growth at 40 µM", "setting": "HepG2 [1]", "result": 20.3, "unit": "%"}, {"measurement": "inhibition of growth at 40 µM", "setting": "MDA-MB-231 [2]", "result": 5, "unit": "%"}]}, {"compound": "CC1=C(CCCC(=O)O)C(=O)c2c(O)cccc2C1=O", "values": [{"measurement": "inhibition of growth at 20 µM", "setting": "HepG2 [3]", "result": 23.2, "unit": "%"}, {"measurement": "inhibition of growth at 20 µM", "setting": "MDA-MB-231 [4]", "result": 6.1, "unit": "%"}]}, {"compound": "CC1=C(CC(=O)OCCCOc2no[n+]([O-])c2S(=O)(=O)c2ccccc2)C(=O)c2c(O)cccc2C1=O", "values": [{"measurement": "inhibition of growth at 10 µM", "setting": "HepG2 [5]", "result": 97.2, "unit": "%"}, {"measurement": "IC50", "setting": "HepG2 [6]", "result": 4.41, "unit": "µM"}, {"measurement": "Ratio IC50", "setting": "[7]", "result": 2.5}, {"measurement": "IC50", "setting": "A549", "result": 7, "unit": "µM"}, {"measurement": "inhibition of growth at 10 µM", "setting": "MDA-MB-231 [8]", "result": 97.7, "unit": "%"}, {"measurement": "IC50", "setting": "MDA-MB-231 [9]", "result": 1760, "unit": "nM"}, {"measurement": "Ratio IC50", "setting": "[10]", "result": 4}]}, {"compound": "CC1=C(CCC(=O)OCCOc2no[n+]([O-])c2S(=O)(=O)c2ccccc2)C(=O)c2c(O)cccc2C1=O", "values": [{"measurement": "inhibition of growth at 10 µM", "setting": "HepG2 [5]", "result": 95.7, "unit": "%"}, {"measurement": "Stability", "setting": "[11]", "result": "Stable"}, {"measurement": "IC50", "setting": "HepG2 [6]", "result": 2.98, "unit": "µM"}, {"measurement": "Ratio IC50", "setting": "[7]", "result": 2.5}, {"measurement": "Stability", "setting": "[12]", "result": "Stable"}, {"measurement": "IC50", "setting": "A549", "result": 9.31, "unit": "µM"}, {"measurement": "inhibition of growth at 10 µM", "setting": "MDA-MB-231 [8]", "result": 97.6, "unit": "%"}, {"measurement": "remaining at 24 h, 1000 µM", "setting": "[13]", "result": "> 98", "unit": "%"}, {"measurement": "IC50", "setting": "MDA-MB-231 [9]", "result": 1210, "unit": "nM"}, {"measurement": "Ratio IC50", "setting": "[10]", "result": 7.7}]}, {"compound": "CC1=C(CCC(=O)OCC(C)COc2no[n+]([O-])c2S(=O)(=O)c2ccccc2)C(=O)c2c(O)cccc2C1=O", "note": "(stereo not given)", "values": [{"measurement": "inhibition of growth at 10 µM", "setting": "HepG2 [5]", "result": 73.4, "unit": "%"}, {"measurement": "Drug metabolism", "setting": "[14]", "result": "Metabolite_Detected"}, {"measurement": "IC50", "setting": "HepG2 [6]", "result": 6.69, "unit": "µM"}, {"measurement": "Ratio IC50", "setting": "[7]", "result": 2.5}, {"measurement": "IC50", "setting": "A549", "result": 18.2, "unit": "µM"}, {"measurement": "inhibition of growth at 10 µM", "setting": "MDA-MB-231 [8]", "result": 97.4, "unit": "%"}, {"measurement": "IC50", "setting": "MDA-MB-231 [9]", "result": 2670, "unit": "nM"}, {"measurement": "Ratio IC50", "setting": "[10]", "result": 6.8}]}, {"compound": "CC1=C(C(C)CC(=O)OCCCCOc2no[n+]([O-])c2S(=O)(=O)c2ccccc2)C(=O)c2c(O)cccc2C1=O", "note": "(stereo not given)", "values": [{"measurement": "inhibition of growth at 10 µM", "setting": "HepG2 [5]", "result": 89.2, "unit": "%"}, {"measurement": "IC50", "setting": "HepG2 [6]", "result": 4.24, "unit": "µM"}, {"measurement": "Ratio IC50", "setting": "[7]", "result": 2.1}, {"measurement": "IC50", "setting": "A549", "result": 19.6, "unit": "µM"}, {"measurement": "inhibition of growth at 10 µM", "setting": "MDA-MB-231 [8]", "result": 92.7, "unit": "%"}, {"measurement": "IC50", "setting": "MDA-MB-231 [9]", "result": 1980, "unit": "nM"}, {"measurement": "Ratio IC50", "setting": "[10]", "result": 10}]}, {"compound": "CC1=C(CCCC(=O)OCCOc2no[n+]([O-])c2S(=O)(=O)c2ccccc2)C(=O)c2c(O)cccc2C1=O", "values": [{"measurement": "inhibition of growth at 10 µM", "setting": "HepG2 [5]", "result": 95.1, "unit": "%"}, {"measurement": "IC50", "setting": "HepG2 [6]", "result": 4.16, "unit": "µM"}, {"measurement": "Ratio IC50", "setting": "[7]", "result": 2.7}, {"measurement": "IC50", "setting": "A549", "result": 10.2, "unit": "µM"}, {"measurement": "inhibition of growth at 10 µM", "setting": "MDA-MB-231 [8]", "result": 97.9, "unit": "%"}, {"measurement": "IC50", "setting": "MDA-MB-231 [9]", "result": 1520, "unit": "nM"}, {"measurement": "Ratio IC50", "setting": "[10]", "result": 6.7}]}, {"compound": "CC1=C(CC(=O)O)C(=O)c2c(O)cccc2C1=O", "values": [{"measurement": "inhibition of growth at 40 µM", "setting": "HepG2 [1]", "result": 11, "unit": "%"}, {"measurement": "inhibition of growth at 40 µM", "setting": "MDA-MB-231 [2]", "result": 2.4, "unit": "%"}]}]}
